Measurements reported in patent US20040097420A1, “Proteasome regulation of NF-kB activity” (Harvard College, priority 1994, published 2004).
Non-standard residues stand in square brackets, D forms with d. Residues, ends and D or L forms follow the SMILES beside them. *: point of attachment. Nle = CCCC[C@H](N)C(=O)O; Cbz = O=C(OCc1ccccc1)*

Assays:
PC12 cells = settings: Tsubuki et al. (1993); cited from earlier work
[1] = molecular target: T1, chymotrypsin-like activity of the proteasome (UniProt Q32KL2); settings: slow binding inhibitors; Vinitsky et al., Biochemistry 31:9421-9428 (1992); cited from earlier work
T1 sequence (Q32KL2 1-263): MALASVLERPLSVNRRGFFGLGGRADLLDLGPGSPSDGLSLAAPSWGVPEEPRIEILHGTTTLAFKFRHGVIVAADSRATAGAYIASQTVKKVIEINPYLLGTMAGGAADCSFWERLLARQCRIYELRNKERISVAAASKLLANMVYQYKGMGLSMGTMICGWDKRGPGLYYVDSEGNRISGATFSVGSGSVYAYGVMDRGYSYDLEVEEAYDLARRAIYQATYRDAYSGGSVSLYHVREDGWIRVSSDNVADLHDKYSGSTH

20S Proteasome [2] = molecular target: T2, 20S Proteasome (Oryctolagus cuniculus, UniProt G1T4Q9); experiment: MG 101 inhibition of muscle 20S proteasome (Table IV); format: biochemical; settings: enzyme preparation: 20S Proteasome (muscle)
T2 sequence (G1T4Q9 1-263): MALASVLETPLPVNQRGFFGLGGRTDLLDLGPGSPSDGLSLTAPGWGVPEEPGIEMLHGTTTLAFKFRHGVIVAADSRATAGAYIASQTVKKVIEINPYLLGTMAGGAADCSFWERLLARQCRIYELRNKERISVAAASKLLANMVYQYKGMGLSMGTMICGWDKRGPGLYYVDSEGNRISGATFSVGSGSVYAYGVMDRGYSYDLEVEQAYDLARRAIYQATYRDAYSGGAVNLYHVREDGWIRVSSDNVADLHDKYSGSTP

[3] = molecular target: calpain, 80 kD catalytic subunit; experiment: Inhibition of calpain (Ki); format: biochemical; settings: Rabbit muscle, substrate Suc-LLVY-AMC, [CaCl2] = 1 mM, [DTT] = 2 mM, pH 7.8, 20° C.
Source text: (§1) Tables I-III summarize results from kinetic experiments that measured the inhibition of the 20S and 26S proteasomes, as well as cathepsin B and calpain. In these tables, Ki values are reported, which are dissociation constants for the equilibrium that is established when enzyme and inhibitor interact to form the enzyme:inhibitor complex.

26S proteasome = molecular target: T3, 26S proteasome (Oryctolagus cuniculus, UniProt G1T4Q9); experiment: Inhibition of the 26S proteasome (kinetic experiments, Ki); format: biochemical; settings: Rabbit muscle; substrate Suc-LLVY-AMC; [Mg:ATP] = 2 mM
T3 sequence (G1T4Q9 1-263): T2 sequence (G1T4Q9 1-263)
Source text: as §1
(§2) The substances and assay conditions are briefly summarized in the footnotes to Table I. MG 101 and MG 102, also known as Calpain Inhibitor I and II, were purchased from Calbiochem as catalogue products.

20S Proteasome [4] = molecular target: T2, 20S Proteasome; experiment: Inhibition of the 20S proteasome (kinetic experiments, Ki); format: biochemical, Rabbit; design: Ki 20 S; substrate Suc-LLVY-AMC; settings: Rabbit muscle, SDS-activated; substrate Suc-LLVY-AMC
Source text: as §1, §2
Table V summarizes data for the inhibition of the 20S proteasome by various tripeptide aldehyde inhibitors.

[5] = molecular target: T4, 20S Proteasome + Muscle 180 kDa Activator (Oryctolagus cuniculus, UniProt G1T4Q9); experiment: MG 101 inhibition of 20S proteasome + muscle 180 kDa activator (Table IV); format: biochemical; settings: enzyme preparation: 20S Proteasome + Muscle 180 kDa Activator
T4 sequence (G1T4Q9 1-263): T2 sequence (G1T4Q9 1-263)

cathepsin B = molecular target: T5, cathepsin B (Bos taurus, UniProt P07688); experiment: Inhibition of cathepsin B (Ki); format: biochemical; settings: Bovine spleen; substrate Z-RR-AMC; [DTT] = 2 mM, [EDTA] = 5 mM, pH 5.5, 37° C.; read-out: Ki Cat B
T5 construct: Bovine spleen; Substrate: Z-RR-AMC; from tissue; host or cells: bovine spleen
Source text: as §1

20S Proteasome ± SDS = molecular target: T6, 20S Proteasome ± SDS (Oryctolagus cuniculus, UniProt G1T4Q9); experiment: MG 101 inhibition of 20S proteasome with SDS (Table IV); format: biochemical; settings: enzyme preparation: 20S Proteasome ± SDS
T6 sequence (G1T4Q9 1-263): T2 sequence (G1T4Q9 1-263)

26S Proteasome Complex = molecular target: T7, 26S Proteasome Complex (Oryctolagus cuniculus, UniProt G1T4Q9); experiment: MG 101 inhibition of muscle 26S proteasome complex (Table IV); format: biochemical; settings: enzyme preparation: 26S Proteasome Complex (muscle)
T7 sequence (G1T4Q9 1-263): T2 sequence (G1T4Q9 1-263)

[6] = test system: p60Tth processing by proteasome; experiment: In vitro processing of p60Tth with purified proteasomes / extract; format: biochemical; settings: processing reaction with purified 20/26S proteasomes or fraction II and Pr−(II) extract
Experimental: The p60Tth precursor (or p105) was translated in wheat germ extract. The substrate protein was mixed with HeLa cell cytoplasmic extract (S100) in a processing buffer containing 12 mM Tris, pH 7.5, 60 mM KCl, 20 mM creatine phosphate, 3.5 mM MgCl2 and 1 mM ATP. After incubation at 30° C for one hour, the reaction mixtures were subjected to immunoprecipitation with anti-p50 Ab and the proteins were resolved by SDS-PAGE. In the Apyrase treated sample, the p60 was incubated with 10 U of enzyme at 37° C. for 30 minutes to inactivate residual ATP in the wheat germ extract before adding the HeLa cell S100.
Increasing amounts of purified 20/26S proteasomes or a proteasome-enriched fraction from reticulocyte lysate, fraction II, were added alone or were combined with Pr^−(II) extract in a processing reaction (see Example 4). In addition, processing was inhibited by ATPγS, a non-hydrolyzable analogue of ATP that allows ubiquitination but inhibits proteasome function (lanes 3-5).

Row | SMILES | Ki [1] [nM] | Ki [3] [nM] | Ki (26S proteasome) [nM] | Ki (20S Proteasome [4]) [nM] | Ki (cathepsin B) [nM] | also measured
1 | CC(C)C[C@@H](C=O)NC(=O)[C@H](CC(C)C)NC(=O)[C@H](CC(C)C)NC(=O)OCc1ccccc1 [benzyloxycarbonyl(Z)-Leu-Leu-leucinal, Z-L-Leucine-L-Leucine-L-Leucinal] (Cbz-Leu-Leu-Leu-aldehyde) | – | – | – | – | – | optimal concentration initiating neurite outgrowth (PC12 cells): 30 nM
2 | CSCC[C@@H](C=O)NC(=O)[C@H](CC(C)C)NC(=O)[C@H](CC(C)C)NC(C)=O [Ac-LLM-H, N-acetyl-Leu-Leu-methioninal] (Ac-Leu-Leu-Met-aldehyde) | 33000 | – | – | – | – | –
3 | CCCC[C@@H](C=O)NC(=O)[C@H](CC(C)C)NC(=O)[C@H](CC(C)C)NC(C)=O [MG 101, Ac-Leu-Leu-Nle-H] (Ac-Leu-Leu-[Nle]-aldehyde) | 5700 | 5 | 1000 | 140 | 6 | Ki (20S Proteasome [2]): 7000 nM; Ki [5]: 600 nM; Ki (20S Proteasome ± SDS): 140 nM; Ki (26S Proteasome Complex): 3000 nM
4 | Nc1ncnc2c1ncn2[C@@H]1O[C@H](COP(=O)(O)OP(=O)(O)OP(O)(O)=S)[C@@H](O)[C@H]1O [ATPγS] | – | – | – | – | – | effect on p60Tth processing in vitro [6]: inhibited
5 | CC(C)C[C@H](NC(=O)OCc1ccccc1)C(=O)N[C@@H](CC(C)C)C(=O)N[C@H](C=O)Cc1ccccc1 [MG 110, Z-Leu-Leu-Phe-H] (Cbz-Leu-Leu-Phe-aldehyde) | 460 | 62 | 180 | 48 | 100 | –
